This is an account of results in patent EP2140864A2 (H. Lundbeck A/S, priority 2001, dated 2002).

T9 sequence (P21728 whole entry): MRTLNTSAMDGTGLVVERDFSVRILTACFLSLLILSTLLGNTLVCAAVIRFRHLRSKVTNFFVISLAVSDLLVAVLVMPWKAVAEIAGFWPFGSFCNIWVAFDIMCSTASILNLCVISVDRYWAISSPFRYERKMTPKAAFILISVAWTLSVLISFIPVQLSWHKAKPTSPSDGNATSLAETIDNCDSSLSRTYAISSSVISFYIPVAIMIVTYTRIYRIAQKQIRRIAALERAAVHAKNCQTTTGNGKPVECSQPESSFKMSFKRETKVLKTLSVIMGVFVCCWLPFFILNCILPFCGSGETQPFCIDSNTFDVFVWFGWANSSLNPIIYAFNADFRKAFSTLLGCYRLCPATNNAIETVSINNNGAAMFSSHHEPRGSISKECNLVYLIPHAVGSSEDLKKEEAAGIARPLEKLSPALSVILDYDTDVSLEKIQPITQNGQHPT
Chain of 5HT transporter (P31652 whole entry): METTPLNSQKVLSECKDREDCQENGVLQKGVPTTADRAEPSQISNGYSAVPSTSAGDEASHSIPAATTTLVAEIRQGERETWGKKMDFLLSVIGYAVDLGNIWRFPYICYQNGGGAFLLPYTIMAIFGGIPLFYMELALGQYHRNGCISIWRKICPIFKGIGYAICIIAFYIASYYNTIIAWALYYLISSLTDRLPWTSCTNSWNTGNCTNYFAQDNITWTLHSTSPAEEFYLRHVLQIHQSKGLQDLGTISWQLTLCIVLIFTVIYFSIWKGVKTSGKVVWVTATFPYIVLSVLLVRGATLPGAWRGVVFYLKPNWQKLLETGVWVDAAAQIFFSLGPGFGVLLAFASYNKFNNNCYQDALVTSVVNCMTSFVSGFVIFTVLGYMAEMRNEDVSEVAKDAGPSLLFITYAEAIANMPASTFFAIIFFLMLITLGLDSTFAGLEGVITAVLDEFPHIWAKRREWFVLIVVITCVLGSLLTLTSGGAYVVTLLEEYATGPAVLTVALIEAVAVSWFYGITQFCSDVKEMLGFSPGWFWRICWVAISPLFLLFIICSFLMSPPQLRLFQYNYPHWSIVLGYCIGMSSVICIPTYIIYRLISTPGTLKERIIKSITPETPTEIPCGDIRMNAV
Chain of DA transporter (P23977 whole entry): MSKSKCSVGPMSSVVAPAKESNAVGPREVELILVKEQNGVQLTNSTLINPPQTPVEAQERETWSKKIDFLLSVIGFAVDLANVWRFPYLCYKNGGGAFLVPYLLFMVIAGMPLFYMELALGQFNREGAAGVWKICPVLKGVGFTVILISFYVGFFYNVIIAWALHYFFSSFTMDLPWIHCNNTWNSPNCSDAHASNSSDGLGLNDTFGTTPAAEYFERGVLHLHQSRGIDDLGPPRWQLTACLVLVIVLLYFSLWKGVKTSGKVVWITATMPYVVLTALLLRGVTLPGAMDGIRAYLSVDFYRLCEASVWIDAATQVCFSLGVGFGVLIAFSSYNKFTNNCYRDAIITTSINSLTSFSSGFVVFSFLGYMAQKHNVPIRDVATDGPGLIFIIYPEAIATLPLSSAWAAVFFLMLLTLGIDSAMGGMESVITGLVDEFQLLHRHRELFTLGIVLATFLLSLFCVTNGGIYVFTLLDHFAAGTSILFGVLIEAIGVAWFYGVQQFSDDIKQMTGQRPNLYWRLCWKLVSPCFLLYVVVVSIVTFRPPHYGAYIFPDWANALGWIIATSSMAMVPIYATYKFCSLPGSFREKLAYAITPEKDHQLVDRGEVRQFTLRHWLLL
T8 sequence (P50406 whole entry): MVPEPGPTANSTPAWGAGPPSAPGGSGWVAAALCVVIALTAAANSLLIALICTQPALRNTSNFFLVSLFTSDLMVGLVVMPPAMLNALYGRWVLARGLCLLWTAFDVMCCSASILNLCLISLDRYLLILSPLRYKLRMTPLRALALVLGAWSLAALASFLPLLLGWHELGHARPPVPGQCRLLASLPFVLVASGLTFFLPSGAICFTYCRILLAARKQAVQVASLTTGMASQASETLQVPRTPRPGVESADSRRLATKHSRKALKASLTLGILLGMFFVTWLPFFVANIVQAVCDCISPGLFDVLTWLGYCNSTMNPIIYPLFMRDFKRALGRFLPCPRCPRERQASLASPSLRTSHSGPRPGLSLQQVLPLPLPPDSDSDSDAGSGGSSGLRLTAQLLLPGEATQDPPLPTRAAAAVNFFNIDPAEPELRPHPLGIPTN
T3 sequence (P34969 1-445 isoform P34969-2): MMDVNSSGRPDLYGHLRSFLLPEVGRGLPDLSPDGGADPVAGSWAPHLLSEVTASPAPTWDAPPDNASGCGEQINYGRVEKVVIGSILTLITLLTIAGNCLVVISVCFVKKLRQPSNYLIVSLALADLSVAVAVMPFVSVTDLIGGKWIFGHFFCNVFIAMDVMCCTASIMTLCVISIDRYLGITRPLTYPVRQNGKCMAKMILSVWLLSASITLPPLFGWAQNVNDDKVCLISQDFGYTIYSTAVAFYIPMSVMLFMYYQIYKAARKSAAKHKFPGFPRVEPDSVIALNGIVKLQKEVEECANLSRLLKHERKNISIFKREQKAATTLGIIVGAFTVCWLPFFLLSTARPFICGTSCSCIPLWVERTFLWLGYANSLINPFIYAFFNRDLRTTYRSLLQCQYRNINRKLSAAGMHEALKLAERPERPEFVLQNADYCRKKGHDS

For the first test, the target named is T1, human 5HT4 receptor (Homo sapiens, UniProt Q13639).
T1 construct: expressed in transfected cells
T1 sequence (Q13639 whole entry): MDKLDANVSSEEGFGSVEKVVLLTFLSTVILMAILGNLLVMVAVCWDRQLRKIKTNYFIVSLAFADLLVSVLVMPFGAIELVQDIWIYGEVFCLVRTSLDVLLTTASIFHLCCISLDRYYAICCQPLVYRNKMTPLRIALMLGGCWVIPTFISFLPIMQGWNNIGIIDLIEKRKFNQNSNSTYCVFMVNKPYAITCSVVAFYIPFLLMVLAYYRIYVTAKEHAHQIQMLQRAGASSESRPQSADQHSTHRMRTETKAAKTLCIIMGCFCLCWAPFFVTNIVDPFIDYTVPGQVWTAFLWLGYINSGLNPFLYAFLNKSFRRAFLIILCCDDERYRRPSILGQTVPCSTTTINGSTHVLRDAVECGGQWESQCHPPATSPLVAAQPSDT
The test can be described thus: Radioligand binding, 5-HT4 receptor. The following applies: Table 7; read-out: h5HT4 Ki. On the procedure:
(§1) Other 5-HT Receptors: Other serotonin receptor binding assays were performed according to published methods: rat 5HT2C receptor (Julius et al., 1988); and 5-HT6 (Monsma, et al., 1993). The binding assays using the 5-HT4 receptor were performed according to the procedures described in U.S. Patent No. 5,766,879, the disclosure of which is hereby incorporated by reference in its entirety into this application.
(§2) Binding data were analyzed using nonlinear regression and statistical techniques available in the GraphPAD Prism package (San Diego, CA). Enzymatic assay data were derived from a standard curve of reference compound data.
Broadly, the Ki is the equilibrium dissociation constant of an inhibitor or competing ligand from its target. With `O=C1C(=Nc2cccc(Cl)c2)c2ccccc2N1c1ccccc1` [Example 94, 3-[(3-CHLOROPHENYL)IMINO]-1-PHENYL-1,3-DIHYDRO-2H-INDOL-2-ONE], the Ki is 4.12 µM.

Staying with this test, now noted: Table 8; Ki h5HT4 divided by Ki hGAL3.
With `O=C1C(=Nc2cccc(Cl)c2)c2ccccc2N1c1ccccc1` [Example 94, 3-[(3-CHLOROPHENYL)IMINO]-1-PHENYL-1,3-DIHYDRO-2H-INDOL-2-ONE], the “selectivity ratio h5HT4” value is on record as more than 30.

For a further test, the target named is T2, human 5HT1E (Homo sapiens, UniProt P28566).
T2 construct: expressed in transfected cells
T2 sequence (P28566 whole entry): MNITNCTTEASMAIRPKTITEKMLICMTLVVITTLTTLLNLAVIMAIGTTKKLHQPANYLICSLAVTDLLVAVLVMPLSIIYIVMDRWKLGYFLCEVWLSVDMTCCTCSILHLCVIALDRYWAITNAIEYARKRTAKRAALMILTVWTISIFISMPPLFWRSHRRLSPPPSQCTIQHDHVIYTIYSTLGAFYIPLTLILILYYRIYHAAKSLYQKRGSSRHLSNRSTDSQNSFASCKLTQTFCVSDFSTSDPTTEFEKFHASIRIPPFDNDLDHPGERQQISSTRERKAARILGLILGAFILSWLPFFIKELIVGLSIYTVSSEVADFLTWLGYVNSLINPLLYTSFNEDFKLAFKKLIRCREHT
The test can be described thus: Radioligand binding, 5HT1E receptor ([3H]-serotonin). Particulars: Table 7; read-out: h5HT1E Ki. On the procedure:
(§3) Human 5HT1B, 5HT1D, 5HT1E, 5HT1F, and 5HT7 Receptors: The cell lysates of LM(tk-) clonal cell line stably transfected with the genes encoding each of these 5HT receptor-subtypes were prepared as described above. Cell membranes were suspended in 50mM Tris-HCl buffer (pH 7.4 at 37°C) containing 10 mM MgCl2, 0.2 mM EDTA, 10 µM pargyline, and 0.1% ascorbate. […] Nonspecific binding was determined in the presence of 10 µM serotonin. The bound radioligand was separated by filtration through GF/B filters using a cell harvester.
as §2
`O=C1C(=Nc2cccc(Cl)c2)c2ccccc2N1c1ccccc1` [Example 94, 3-[(3-CHLOROPHENYL)IMINO]-1-PHENYL-1,3-DIHYDRO-2H-INDOL-2-ONE]: the inhibition constant Ki was 25.2 µM.

Still in this test, the particulars now being: Table 8; Ki h5HT1E divided by Ki hGAL3.
As to `O=C1C(=Nc2cccc(Cl)c2)c2ccccc2N1c1ccccc1` [Example 94, 3-[(3-CHLOROPHENYL)IMINO]-1-PHENYL-1,3-DIHYDRO-2H-INDOL-2-ONE], the “selectivity ratio h5HT1E” value is given as more than 100.

The target of the next test is DA transporter (Rattus norvegicus, UniProt P23977). The test can be described thus: Binding at native DA transporter. Particulars: Table 7; native transporter, head prints r (rat); read-out: rDA Uptk Ki. On the procedure:
(§4) The binding properties of the compounds of the present invention were evaluated at one or more cloned receptors or native, tissue-derived transporters, using protocols described below.
(§5) The methods to determine binding affinity at native transporters are described in the following publications: 5HT transporter and NE transporter (Owens et al., 1997), and DA transporter (Javitch et al, 1984).
as §2
For the molecule `O=C1C(=Nc2cccc(Cl)c2)c2ccccc2N1c1ccccc1` [Example 94, 3-[(3-CHLOROPHENYL)IMINO]-1-PHENYL-1,3-DIHYDRO-2H-INDOL-2-ONE], the Ki was 2.2 µM.

Staying with this test, now noted: Table 8; Ki rDA Uptk divided by Ki hGAL3.
`O=C1C(=Nc2cccc(Cl)c2)c2ccccc2N1c1ccccc1` [Example 94, 3-[(3-CHLOROPHENYL)IMINO]-1-PHENYL-1,3-DIHYDRO-2H-INDOL-2-ONE]: the “selectivity ratio rDA Uptk” value is given as more than 130.

Another test addresses T3, human 5HT7 (Homo sapiens, UniProt P34969).
T3 construct: expressed in transfected cells
Nature of the test: Radioligand binding, 5HT7 receptor ([3H]-serotonin). The following applies: Table 7; read-out: h5HT7 Ki. On the procedure:
as §3, §2
Turning to `O=C1C(=Nc2cccc(Cl)c2)c2ccccc2N1c1ccccc1` [Example 94, 3-[(3-CHLOROPHENYL)IMINO]-1-PHENYL-1,3-DIHYDRO-2H-INDOL-2-ONE], the inhibition constant (Ki) was 8.02 µM.

Staying with this test, now noted: Table 8; Ki h5HT7 divided by Ki hGAL3.
For the molecule `O=C1C(=Nc2cccc(Cl)c2)c2ccccc2N1c1ccccc1` [Example 94, 3-[(3-CHLOROPHENYL)IMINO]-1-PHENYL-1,3-DIHYDRO-2H-INDOL-2-ONE], the “selectivity ratio h5HT7” value was more than 100.

In the next test the target is T4, dopamine D5 receptor (Homo sapiens, UniProt P21918).
T4 construct: expressed in transfected cells
T4 sequence (P21918 whole entry): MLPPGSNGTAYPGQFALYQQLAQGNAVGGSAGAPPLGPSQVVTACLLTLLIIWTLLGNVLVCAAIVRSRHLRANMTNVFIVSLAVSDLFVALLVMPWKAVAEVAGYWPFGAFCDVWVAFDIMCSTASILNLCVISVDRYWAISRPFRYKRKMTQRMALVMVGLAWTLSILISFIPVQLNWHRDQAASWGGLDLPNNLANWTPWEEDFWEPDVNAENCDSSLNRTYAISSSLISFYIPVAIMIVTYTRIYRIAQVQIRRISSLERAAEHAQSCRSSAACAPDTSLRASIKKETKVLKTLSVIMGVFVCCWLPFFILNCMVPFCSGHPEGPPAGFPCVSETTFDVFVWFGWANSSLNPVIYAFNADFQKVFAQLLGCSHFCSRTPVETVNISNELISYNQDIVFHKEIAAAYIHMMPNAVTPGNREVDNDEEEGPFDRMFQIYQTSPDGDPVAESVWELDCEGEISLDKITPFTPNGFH
Nature of the test: Radioligand binding, dopamine D5 receptor. Particulars: Table 9; read-out: hD5 Ki.
Text: (§6) Other receptors: Cell membranes expressing human dopamine D1, D2, D4 and rat D3 receptors were purchased through BioSignal, Inc. (Montreal, Canada). Binding assays using the histamine H1 receptor; dopamine receptors; and α1A, α1E, and α2 adrenergic receptors may be carried out according to the procedures described in U.S. Patent No. 5,780,485, the disclosure of which is hereby incorporated by reference in its entirety into this application. Binding assays using the dopamine D5 receptor may be carried out according to the procedures described in U.S. Patent No. 5,882,855, the disclosure of which is hereby incorporated by reference in its entirety into this application. Binding assays for the human α1D adrenergic receptor may be carried out according to the procedures described in U.S. Patent No. 6,156,518, the disclosure of which is hereby incorporated by reference in its entirety into this application.
as §2
For the molecule `O=C1C(=Nc2cccc(Cl)c2)c2ccccc2N1c1ccccc1` [Example 94, 3-[(3-CHLOROPHENYL)IMINO]-1-PHENYL-1,3-DIHYDRO-2H-INDOL-2-ONE], the inhibition constant Ki worked out at 0.727 µM.

The same test, now with this note: Table 10; Ki hD5 divided by Ki hGAL3.
For `O=C1C(=Nc2cccc(Cl)c2)c2ccccc2N1c1ccccc1` [Example 94, 3-[(3-CHLOROPHENYL)IMINO]-1-PHENYL-1,3-DIHYDRO-2H-INDOL-2-ONE], the “selectivity ratio hD5” value turned out to be 15.

The target in a further test is T5, human 5HT1D (Homo sapiens, UniProt P28221).
T5 construct: expressed in transfected cells
T5 sequence (P28221 whole entry): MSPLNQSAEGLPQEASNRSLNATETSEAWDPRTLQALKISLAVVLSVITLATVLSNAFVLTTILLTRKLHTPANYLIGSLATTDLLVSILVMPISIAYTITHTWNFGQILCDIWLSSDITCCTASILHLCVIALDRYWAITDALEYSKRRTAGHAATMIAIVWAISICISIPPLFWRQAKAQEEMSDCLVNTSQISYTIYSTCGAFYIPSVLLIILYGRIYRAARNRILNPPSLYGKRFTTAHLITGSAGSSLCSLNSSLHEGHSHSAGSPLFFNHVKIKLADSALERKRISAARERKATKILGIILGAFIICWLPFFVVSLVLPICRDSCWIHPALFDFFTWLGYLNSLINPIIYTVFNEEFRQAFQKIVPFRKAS
The test can be described thus: Radioligand binding, 5HT1D receptor ([3H]-serotonin). The following applies: Table 7; read-out: h5HT1D Ki. The method, then:
as §3, §2
Take `O=C1C(=Nc2cccc(Cl)c2)c2ccccc2N1c1ccccc1` [Example 94, 3-[(3-CHLOROPHENYL)IMINO]-1-PHENYL-1,3-DIHYDRO-2H-INDOL-2-ONE]: the Ki was found to be 10.8 µM.

Still in this test, the particulars now being: Table 8; Ki h5HT1D divided by Ki hGAL3.
For the molecule `O=C1C(=Nc2cccc(Cl)c2)c2ccccc2N1c1ccccc1` [Example 94, 3-[(3-CHLOROPHENYL)IMINO]-1-PHENYL-1,3-DIHYDRO-2H-INDOL-2-ONE], the “selectivity ratio h5HT1D” value is listed as more than 100.

The target of the next test is 5HT transporter (Rattus norvegicus, UniProt P31652). The test can be described thus: Binding at native 5HT transporter. The following applies: Table 7; native transporter, head prints r (rat); read-out: r5HT Uptk Ki. On the procedure:
as §4, §5, §2
As to `O=C1C(=Nc2cccc(Cl)c2)c2ccccc2N1c1ccccc1` [Example 94, 3-[(3-CHLOROPHENYL)IMINO]-1-PHENYL-1,3-DIHYDRO-2H-INDOL-2-ONE], the inhibition constant Ki turned out to be 13 µM.

The same test, now with this note: Table 8; Ki r5HT Uptk divided by Ki hGAL3.
With `O=C1C(=Nc2cccc(Cl)c2)c2ccccc2N1c1ccccc1` [Example 94, 3-[(3-CHLOROPHENYL)IMINO]-1-PHENYL-1,3-DIHYDRO-2H-INDOL-2-ONE], the “selectivity ratio r5HT Uptk” value is recorded as more than 100.

The target of a further test is T6, human α2B adrenoceptor (Homo sapiens, UniProt P18089).
T6 construct: expressed in transfected cells
T6 sequence (P18089 1-450): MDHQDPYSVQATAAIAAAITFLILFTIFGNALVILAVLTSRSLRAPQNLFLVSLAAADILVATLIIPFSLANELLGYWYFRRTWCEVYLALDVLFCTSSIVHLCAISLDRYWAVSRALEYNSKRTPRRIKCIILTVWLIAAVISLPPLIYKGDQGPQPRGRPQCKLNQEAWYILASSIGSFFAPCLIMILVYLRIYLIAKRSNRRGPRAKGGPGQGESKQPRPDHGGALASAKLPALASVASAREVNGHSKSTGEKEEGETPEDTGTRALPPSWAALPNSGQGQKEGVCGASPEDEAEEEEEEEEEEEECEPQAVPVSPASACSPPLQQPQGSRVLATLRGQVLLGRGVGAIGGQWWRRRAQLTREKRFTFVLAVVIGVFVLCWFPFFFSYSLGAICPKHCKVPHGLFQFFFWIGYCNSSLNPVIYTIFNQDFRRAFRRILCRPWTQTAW
Nature of the test: Radioligand binding, α2B adrenergic receptor. The following applies: Table 9; read-out: hα2B Ki.
Text: as §6, §2
`O=C1C(=Nc2cccc(Cl)c2)c2ccccc2N1c1ccccc1` [Example 94, 3-[(3-CHLOROPHENYL)IMINO]-1-PHENYL-1,3-DIHYDRO-2H-INDOL-2-ONE]: the inhibition constant (Ki) is 45.4 µM.

The test is the same for the next values; noted with them: Table 10; Ki hα2B divided by Ki hGAL3.
As for `O=C1C(=Nc2cccc(Cl)c2)c2ccccc2N1c1ccccc1` [Example 94, 3-[(3-CHLOROPHENYL)IMINO]-1-PHENYL-1,3-DIHYDRO-2H-INDOL-2-ONE], the “selectivity ratio hα2B” value is on record as more than 100.

A further test concerns the target T7, human α1B adrenoceptor (Homo sapiens, UniProt P35368).
T7 construct: expressed in transfected cells
T7 sequence (P35368 1-520): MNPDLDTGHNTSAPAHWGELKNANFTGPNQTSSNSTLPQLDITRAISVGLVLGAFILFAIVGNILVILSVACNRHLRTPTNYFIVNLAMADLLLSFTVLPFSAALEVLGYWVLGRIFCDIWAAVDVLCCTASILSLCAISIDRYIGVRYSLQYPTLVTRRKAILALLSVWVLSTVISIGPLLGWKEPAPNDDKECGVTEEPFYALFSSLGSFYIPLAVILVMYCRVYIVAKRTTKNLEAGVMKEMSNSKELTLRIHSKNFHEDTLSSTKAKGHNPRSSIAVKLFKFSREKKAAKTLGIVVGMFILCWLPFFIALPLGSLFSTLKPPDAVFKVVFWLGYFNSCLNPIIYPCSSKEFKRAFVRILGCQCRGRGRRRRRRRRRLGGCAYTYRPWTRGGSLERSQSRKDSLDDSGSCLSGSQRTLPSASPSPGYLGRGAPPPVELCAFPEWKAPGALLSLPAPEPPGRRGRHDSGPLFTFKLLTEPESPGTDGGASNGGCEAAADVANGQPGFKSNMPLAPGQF
The test can be described thus: Radioligand binding, α1B adrenergic receptor. The following applies: Table 9; read-out: hα1B Ki.
As for `O=C1C(=Nc2cccc(Cl)c2)c2ccccc2N1c1ccccc1` [Example 94, 3-[(3-CHLOROPHENYL)IMINO]-1-PHENYL-1,3-DIHYDRO-2H-INDOL-2-ONE], the Ki was 31.1 µM.

The same test, now with this note: Table 10; Ki hα1B divided by Ki hGAL3.
Consider `O=C1C(=Nc2cccc(Cl)c2)c2ccccc2N1c1ccccc1` [Example 94, 3-[(3-CHLOROPHENYL)IMINO]-1-PHENYL-1,3-DIHYDRO-2H-INDOL-2-ONE], for which the “selectivity ratio hα1B” value was more than 100.

Another test has as its target T8, human 5HT6 (Homo sapiens, UniProt P50406).
T8 construct: expressed in transfected cells
Nature of the test: Radioligand binding, 5-HT6 receptor. Particulars: Table 7; read-out: h5HT6 Ki. On the procedure: as §1, §2
Take `O=C1C(=Nc2cccc(Cl)c2)c2ccccc2N1c1ccccc1` [Example 94, 3-[(3-CHLOROPHENYL)IMINO]-1-PHENYL-1,3-DIHYDRO-2H-INDOL-2-ONE]: the inhibition constant (Ki) was determined as 3.65 µM.

The test is the same for the next values; noted with them: Table 8; Ki h5HT6 divided by Ki hGAL3.
For the molecule `O=C1C(=Nc2cccc(Cl)c2)c2ccccc2N1c1ccccc1` [Example 94, 3-[(3-CHLOROPHENYL)IMINO]-1-PHENYL-1,3-DIHYDRO-2H-INDOL-2-ONE], the “selectivity ratio h5HT6” value is more than 30.

A further test addresses T9, human dopamine D1 (Homo sapiens, UniProt P21728).
T9 construct: purchased BioSignal, Inc. (Montreal, Canada); host or cells: membranes of cells expressing the receptor
Nature of the test: Radioligand binding, dopamine D1 receptor. Particulars: Table 9; read-out: hD1 Ki.
Text: as §6, §2
As for `O=C1C(=Nc2cccc(Cl)c2)c2ccccc2N1c1ccccc1` [Example 94, 3-[(3-CHLOROPHENYL)IMINO]-1-PHENYL-1,3-DIHYDRO-2H-INDOL-2-ONE], the Ki was 2.15 µM.

Staying with this test, now noted: Table 10; Ki hD1 divided by Ki hGAL3.
In the case of `O=C1C(=Nc2cccc(Cl)c2)c2ccccc2N1c1ccccc1` [Example 94, 3-[(3-CHLOROPHENYL)IMINO]-1-PHENYL-1,3-DIHYDRO-2H-INDOL-2-ONE], the “selectivity ratio hD1” value was more than 30.
